Reference: patent publication US20250129078A1, “ERBB2 INHIBITORS” (Cogent Biosciences, Inc., priority 2023, published 2025)

Tests used:
ErbB2 V777L = ErbB2 V777L (Homo sapiens (Human), UniProt P04626, V777L); experiment: ErbB enzyme assay (CisBio HTRF-KinEASE-TK), ErbB2 V777L; type: biochemical
How it was run: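 HTRF KinEASE-TK tyrosine-kinase read-out of substrate phosphorylation after a final 1 h at ambient temperature, from the 655/620 nm emission ratio.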

EGFR WT = EGFR WT (Homo sapiens (Human), UniProt P00533); experiment: ErbB enzyme assay (CisBio HTRF-KinEASE-TK), EGFR WT; type: biochemical; details: ATP at Km (25 μM), 1 h incubation
Chain of EGFR WT (P00533 25-1210): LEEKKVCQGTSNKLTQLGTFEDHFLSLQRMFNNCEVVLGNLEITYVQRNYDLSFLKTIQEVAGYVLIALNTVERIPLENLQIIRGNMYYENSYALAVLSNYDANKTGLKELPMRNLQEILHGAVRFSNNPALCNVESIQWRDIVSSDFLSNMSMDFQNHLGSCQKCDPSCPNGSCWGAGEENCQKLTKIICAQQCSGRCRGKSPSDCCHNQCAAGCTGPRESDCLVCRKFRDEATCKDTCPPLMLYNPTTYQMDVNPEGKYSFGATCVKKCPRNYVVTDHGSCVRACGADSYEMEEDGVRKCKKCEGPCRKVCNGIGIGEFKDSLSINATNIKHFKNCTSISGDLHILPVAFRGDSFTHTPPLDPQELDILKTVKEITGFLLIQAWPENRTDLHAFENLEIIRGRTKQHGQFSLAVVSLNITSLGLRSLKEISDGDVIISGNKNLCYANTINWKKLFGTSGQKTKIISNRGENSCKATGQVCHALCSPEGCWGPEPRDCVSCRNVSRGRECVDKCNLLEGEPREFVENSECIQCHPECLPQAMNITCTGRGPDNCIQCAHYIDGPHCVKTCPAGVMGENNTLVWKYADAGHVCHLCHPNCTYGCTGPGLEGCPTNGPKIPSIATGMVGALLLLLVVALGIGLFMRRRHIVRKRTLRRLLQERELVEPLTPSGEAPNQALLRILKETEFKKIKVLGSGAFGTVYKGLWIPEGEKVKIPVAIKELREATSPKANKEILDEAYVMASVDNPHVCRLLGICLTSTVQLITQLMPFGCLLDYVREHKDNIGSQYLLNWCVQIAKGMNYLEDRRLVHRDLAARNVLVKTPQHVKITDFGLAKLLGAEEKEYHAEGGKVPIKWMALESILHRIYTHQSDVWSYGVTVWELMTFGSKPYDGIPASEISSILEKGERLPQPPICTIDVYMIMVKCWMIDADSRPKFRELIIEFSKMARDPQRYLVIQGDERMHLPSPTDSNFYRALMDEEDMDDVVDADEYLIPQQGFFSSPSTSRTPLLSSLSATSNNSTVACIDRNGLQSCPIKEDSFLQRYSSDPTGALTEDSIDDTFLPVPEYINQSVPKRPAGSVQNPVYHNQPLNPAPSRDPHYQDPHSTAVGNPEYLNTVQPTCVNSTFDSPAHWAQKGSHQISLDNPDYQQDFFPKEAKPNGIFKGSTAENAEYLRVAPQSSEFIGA
How it was run: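 HTRF KinEASE-TK kinase reactions ran 1 h at ambient temperature with three-fold serial compound dilutions, then were quenched with Sa-XL665 and TK-Ab-Cryptate. After 1 h more, 655/620 nm time-resolved fluorescence gave percent of control; a 4-parameter logistic fit defined IC50 at 50 POC.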

Chain of ErbB2 V777L (P04626 23-1255 V777L): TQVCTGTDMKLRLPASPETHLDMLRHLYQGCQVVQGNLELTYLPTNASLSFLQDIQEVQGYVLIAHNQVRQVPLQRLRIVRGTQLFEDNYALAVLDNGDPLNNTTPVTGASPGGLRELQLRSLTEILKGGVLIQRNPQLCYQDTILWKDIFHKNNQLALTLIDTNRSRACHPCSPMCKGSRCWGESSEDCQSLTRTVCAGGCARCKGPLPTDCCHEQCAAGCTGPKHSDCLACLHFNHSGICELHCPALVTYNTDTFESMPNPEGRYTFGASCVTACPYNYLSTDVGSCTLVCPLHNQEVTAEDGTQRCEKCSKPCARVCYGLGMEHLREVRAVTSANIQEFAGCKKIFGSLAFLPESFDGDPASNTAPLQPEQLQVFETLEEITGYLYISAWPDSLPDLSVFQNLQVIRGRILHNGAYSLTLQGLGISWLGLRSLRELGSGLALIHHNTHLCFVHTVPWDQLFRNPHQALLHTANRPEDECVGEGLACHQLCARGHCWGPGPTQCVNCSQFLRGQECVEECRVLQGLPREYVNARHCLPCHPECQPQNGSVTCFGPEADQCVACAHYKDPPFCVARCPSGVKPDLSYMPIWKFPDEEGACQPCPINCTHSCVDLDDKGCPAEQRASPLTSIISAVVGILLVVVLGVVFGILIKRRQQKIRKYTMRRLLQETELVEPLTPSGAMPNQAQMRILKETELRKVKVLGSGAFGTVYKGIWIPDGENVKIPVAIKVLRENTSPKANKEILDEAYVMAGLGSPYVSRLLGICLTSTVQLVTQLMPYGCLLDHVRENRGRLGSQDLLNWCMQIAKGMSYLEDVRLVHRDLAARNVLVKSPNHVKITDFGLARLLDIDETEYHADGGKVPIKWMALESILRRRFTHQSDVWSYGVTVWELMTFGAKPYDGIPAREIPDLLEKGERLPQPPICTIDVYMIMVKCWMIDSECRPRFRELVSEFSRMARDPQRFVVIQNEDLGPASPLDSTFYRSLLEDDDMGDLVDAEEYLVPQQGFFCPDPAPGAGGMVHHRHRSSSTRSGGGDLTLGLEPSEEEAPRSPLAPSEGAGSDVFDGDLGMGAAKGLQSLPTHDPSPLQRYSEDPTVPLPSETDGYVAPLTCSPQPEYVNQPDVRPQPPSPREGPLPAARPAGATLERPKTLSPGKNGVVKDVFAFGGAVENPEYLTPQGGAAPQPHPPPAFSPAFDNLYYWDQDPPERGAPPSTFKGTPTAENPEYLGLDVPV

C=CC(=O)N1C[C@H](N(C)c2ccc3ncnc(Nc4ccc(Oc5ccc6c(c5)nnn6C)c(C)c4)c3n2)C[C@H]1C [Compound 266, 1-((2R,4R)-2-methyl-4-(methyl(4-((3-methyl-4-((1-methyl-1H-benzo[d][1,2,3]triazol-5-yl)oxy)phenyl)amino)pyrido[3,2-d]pyrimidin-6-yl)amino)pyrrolidin-1-yl)prop-2-en-1-one]
IC50 (ErbB2 V777L): 50 to 100 nM
IC50 (EGFR WT): 100 to 500 nM

C=CC(=O)N[C@@H]1CCCN(c2ccc3ncnc(Nc4ccc(Oc5ccc6c(c5)nnn6C)c(C)c4F)c3n2)[C@@H]1C [Compound 268, N-((2R,3R)-1-(4-((2-fluoro-3-methyl-4-((1-methyl-1H-benzo[d][1,2,3]triazol-5-yl)oxy)phenyl)amino)pyrido[3,2-d]pyrimidin-6-yl)-2-methylpiperidin-3-yl)acrylamide]
IC50 (ErbB2 V777L): 50 to 100 nM
IC50 (EGFR WT): 100 to 500 nM

C=CC(=O)N[C@]1(C)CCN(c2ccc3ncnc(Nc4ccc(Oc5ccc6c(c5)nnn6C)c(C)c4F)c3n2)C1 [Compound 270, (R)-N-(1-(4-((2-fluoro-3-methyl-4-((1-methyl-1H-benzo[d][1,2,3]triazol-5-yl)oxy)phenyl)amino)pyrido[3,2-d]pyrimidin-6-yl)-3-methylpyrrolidin-3-yl)acrylamide]
IC50 (ErbB2 V777L): 50 to 100 nM
IC50 (EGFR WT): 100 to 500 nM

C=CC(=O)N1CCN(c2ccc3ncnc(Nc4ccc(Oc5ccc6c(c5)nnn6C)c(C)c4F)c3n2)C[C@@H]1C1CC1 [Compound 271, (S)-1-(2-cyclopropyl-4-(4-((2-fluoro-3-methyl-4-((1-methyl-1H-benzo[d][1,2,3]triazol-5-yl)oxy)phenyl)amino)pyrido[3,2-d]pyrimidin-6-yl)piperazin-1-yl)prop-2-en-1-one]
IC50 (ErbB2 V777L): 500 to 1000 nM
IC50 (EGFR WT): ≥ 1000 nM

C=CC(=O)NC1CCN(c2ccc3ncnc(Nc4ccc(Oc5ccc6c(c5)nnn6C)c(C)c4F)c3n2)CC1 [Compound 272, N-(1-(4-((2-fluoro-3-methyl-4-((1-methyl-1H-benzo[d][1,2,3]triazol-5-yl)oxy)phenyl)amino)pyrido[3,2-d]pyrimidin-6-yl)piperidin-4-yl)acrylamide]
IC50 (ErbB2 V777L): 100 to 500 nM
IC50 (EGFR WT): 100 to 500 nM

C=CC(=O)NC1(C)CCN(c2ccc3ncnc(Nc4ccc(Oc5ccc6c(c5)nnn6C)c(C)c4F)c3n2)CC1 [Compound 273, N-(1-(4-((2-fluoro-3-methyl-4-((1-methyl-1H-benzo[d][1,2,3]triazol-5-yl)oxy)phenyl)amino)pyrido[3,2-d]pyrimidin-6-yl)-4-methylpiperidin-4-yl)acrylamide]
IC50 (ErbB2 V777L): 100 to 500 nM
IC50 (EGFR WT): 500 to 1000 nM

C=CC(=O)N[C@@H]1CCCN(c2ccc3ncnc(Nc4cc(C)c(Oc5ccc6c(c5)nnn6C)cc4OC)c3n2)C1 [Compound 274, (R)-N-(1-(4-((2-methoxy-5-methyl-4-((1-methyl-1H-benzo[d][1,2,3]triazol-5-yl)oxy)phenyl)amino)pyrido[3,2-d]pyrimidin-6-yl)piperidin-3-yl)acrylamide]
IC50 (ErbB2 V777L): 500 to 1000 nM
IC50 (EGFR WT): ≥ 1000 nM

C=CC(=O)N1CCN(c2ccc3ncnc(Nc4ccc(Oc5ccc6c(c5)nnn6C)c(C)c4F)c3n2)CC1(C)C [Compound 275, 1-(4-(4-((2-fluoro-3-methyl-4-((1-methyl-1H-benzo[d][1,2,3]triazol-5-yl)oxy)phenyl)amino)pyrido[3,2-d]pyrimidin-6-yl)-2,2-dimethylpiperazin-1-yl)prop-2-en-1-one]
IC50 (ErbB2 V777L): 100 to 500 nM
IC50 (EGFR WT): 100 to 500 nM

C=CC(=O)N1CCN(c2ccc3ncnc(Nc4ccc(Oc5ccc6c(c5)ncn6C(F)F)c(C)c4)c3n2)C[C@@H]1C1CC1 [Compound 278, (S)-1-(2-cyclopropyl-4-(4-((4-((1-(difluoromethyl)-1H-benzo[d]imidazol-5-yl)oxy)-3-methylphenyl)amino)pyrido[3,2-d]pyrimidin-6-yl)piperazin-1-yl)prop-2-en-1-one]
IC50 (ErbB2 V777L): 100 to 500 nM
IC50 (EGFR WT): 500 to 1000 nM

C=CC(=O)N1CCCN(c2ccc3ncnc(Nc4ccc(Oc5ccc6c(c5)nnn6C)c(C)c4)c3n2)C[C@@H]1C [Compound 284, (S)-1-(2-methyl-4-(4-((3-methyl-4-((1-methyl-1H-benzo[d][1,2,3]triazol-5-yl)oxy)phenyl)amino)pyrido[3,2-d]pyrimidin-6-yl)-1,4-diazepan-1-yl)prop-2-en-1-one]
IC50 (ErbB2 V777L): 500 to 1000 nM
IC50 (EGFR WT): ≥ 1000 nM

C=CC(=O)N1CCCN(c2ccc3ncnc(Nc4ccc(Oc5ccc6c(c5)nnn6C)c(C)c4)c3n2)C[C@H]1C [Compound 285, (R)-1-(2-methyl-4-(4-((3-methyl-4-((1-methyl-1H-benzo[d][1,2,3]triazol-5-yl)oxy)phenyl)amino)pyrido[3,2-d]pyrimidin-6-yl)-1,4-diazepan-1-yl)prop-2-en-1-one]
IC50 (ErbB2 V777L): 500 to 1000 nM
IC50 (EGFR WT): ≥ 1000 nM

C=CC(=O)N1CCN(c2ccc3ncnc(Nc4ccc(Oc5ccc6c(c5)ncn6C(F)F)c(C)c4F)c3n2)C[C@@H]1C1CC1 [Compound 286, (S)-1-(2-cyclopropyl-4-(4-((4-((1-(difluoromethyl)-1H-benzo[d]imidazol-5-yl)oxy)-2-fluoro-3-methylphenyl)amino)pyrido[3,2-d]pyrimidin-6-yl)piperazin-1-yl)prop-2-en-1-one]
IC50 (ErbB2 V777L): 100 to 500 nM
IC50 (EGFR WT): ≥ 1000 nM

C=CC(=O)N[C@@H]1CCCCN(c2ccc3ncnc(Nc4ccc(Oc5ccc6c(c5)nnn6C)c(C)c4F)c3n2)C1 [Compound 289, (R)-N-(1-(4-((2-fluoro-3-methyl-4-((1-methyl-1H-benzo[d][1,2,3]triazol-5-yl)oxy)phenyl)amino)pyrido[3,2-d]pyrimidin-6-yl)azepan-3-yl)acrylamide]
IC50 (ErbB2 V777L): 500 to 1000 nM
IC50 (EGFR WT): 100 to 500 nM

C=CC(=O)N1CCN(c2ccc3ncnc(Nc4ccc(Oc5cc(F)c6c(c5)nnn6C)c(C)c4)c3n2)C[C@@H]1C1CC1 [Compound 290, (S)-1-(2-cyclopropyl-4-(4-((4-((7-fluoro-1-methyl-1H-benzo[d][1,2,3]triazol-5-yl)oxy)-3-methylphenyl)amino)pyrido[3,2-d]pyrimidin-6-yl)piperazin-1-yl)prop-2-en-1-one]
IC50 (ErbB2 V777L): 100 to 500 nM
IC50 (EGFR WT): 500 to 1000 nM

C=CC(=O)N[C@H]1CCCCN(c2ccc3ncnc(Nc4ccc(Oc5ccc6c(c5)nnn6C)c(C)c4F)c3n2)C1 [Compound 291, (S)-N-(1-(4-((2-fluoro-3-methyl-4-((1-methyl-1H-benzo[d][1,2,3]triazol-5-yl)oxy)phenyl)amino)pyrido[3,2-d]pyrimidin-6-yl)azepan-3-yl)acrylamide]
IC50 (ErbB2 V777L): 50 to 100 nM
IC50 (EGFR WT): 100 to 500 nM

C=CC(=O)N1CCN(c2ccc3ncnc(Nc4ccc(Oc5ccc6c(c5)nnn6C)c(C)c4)c3n2)C[C@H]1CC [Compound 294, (R)-1-(2-ethyl-4-(4-((3-methyl-4-((1-methyl-1H-benzo[d][1,2,3]triazol-5-yl)oxy)phenyl)amino)pyrido[3,2-d]pyrimidin-6-yl)piperazin-1-yl)prop-2-en-1-one]
IC50 (ErbB2 V777L): 100 to 500 nM
IC50 (EGFR WT): 100 to 500 nM

C=CC(=O)N[C@@H]1C[C@@H](F)CN(c2ccc3ncnc(Nc4ccc(Oc5ccc6c(c5)nnn6C)c(C)c4F)c3n2)C1 [Compound 295, N-((3R,5R)-5-fluoro-1-(4-((2-fluoro-3-methyl-4-((1-methyl-1H-benzo[d][1,2,3]triazol-5-yl)oxy)phenyl)amino)pyrido[3,2-d]pyrimidin-6-yl)piperidin-3-yl)acrylamide]
IC50 (ErbB2 V777L): 100 to 500 nM
IC50 (EGFR WT): 100 to 500 nM

C=CC(=O)N[C@H]1CN(c2ccc3ncnc(Nc4ccc(Oc5ccc6c(c5)nnn6C)c(C)c4F)c3n2)CC[C@@H]1F [Compound 296, N-((3S,4S)-4-fluoro-1-(4-((2-fluoro-3-methyl-4-((1-methyl-1H-benzo[d][1,2,3]triazol-5-yl)oxy)phenyl)amino)pyrido[3,2-d]pyrimidin-6-yl)piperidin-3-yl)acrylamide]
IC50 (ErbB2 V777L): 100 to 500 nM
IC50 (EGFR WT): 100 to 500 nM

C=CC(=O)N1CCN(c2ccc3ncnc(Nc4ccc(Oc5ccc6c(c5)nnn6C)c(C)c4)c3n2)C[C@H]1C(C)C [Compound 297, (R)-1-(2-isopropyl-4-(4-((3-methyl-4-((1-methyl-1H-benzo[d][1,2,3]triazol-5-yl)oxy)phenyl)amino)pyrido[3,2-d]pyrimidin-6-yl)piperazin-1-yl)prop-2-en-1-one]
IC50 (ErbB2 V777L): 50 to 100 nM
IC50 (EGFR WT): 100 to 500 nM

C=CC(=O)N[C@@H]1C[C@H](F)CN(c2ccc3ncnc(Nc4ccc(Oc5ccc6c(c5)nnn6C)c(C)c4F)c3n2)C1 [Compound 298, N-((3R,5S)-5-fluoro-1-(4-((2-fluoro-3-methyl-4-((1-methyl-1H-benzo[d][1,2,3]triazol-5-yl)oxy)phenyl)amino)pyrido[3,2-d]pyrimidin-6-yl)piperidin-3-yl)acrylamide]
IC50 (ErbB2 V777L): 50 to 100 nM
IC50 (EGFR WT): < 50 nM

C=CC(=O)N1CCN(c2ccc3ncnc(Nc4ccc(Oc5cc6nnn(C)c6c(F)c5C)c(C)c4)c3n2)C[C@H]1C [Compound 299, (R)-1-(4-(4-((4-((7-fluoro-1,6-dimethyl-1H-benzo[d][1,2,3]triazol-5-yl)oxy)-3-methylphenyl)amino)pyrido[3,2-d]pyrimidin-6-yl)-2-methylpiperazin-1-yl)prop-2-en-1-one]
IC50 (ErbB2 V777L): 100 to 500 nM
IC50 (EGFR WT): ≥ 1000 nM

C=CC(=O)NC1CCN(c2ccc3ncnc(Nc4ccc(Oc5ccc6c(c5)nnn6C)c(C)c4)c3n2)CC1 [Compound 304, N-(1-(4-((3-methyl-4-((1-methyl-1H-benzo[d][1,2,3]triazol-5-yl)oxy)phenyl)amino)pyrido[3,2-d]pyrimidin-6-yl)piperidin-4-yl)acrylamide]
IC50 (ErbB2 V777L): 100 to 500 nM
IC50 (EGFR WT): 100 to 500 nM

C=CC(=O)N1CCN(c2ccc3ncnc(Nc4cc(C)c(Oc5ccc6c(c5)nnn6C)cc4OC(F)(F)F)c3n2)CC1(C)C [Compound 306, 1-(2,2-dimethyl-4-(4-((5-methyl-4-((1-methyl-1H-benzo[d][1,2,3]triazol-5-yl)oxy)-2-(trifluoromethoxy)phenyl)amino)py-rido[3,2-d]pyrimidin-6-yl)piperazin-1-yl)prop-2-en-1-one]
IC50 (ErbB2 V777L): 100 to 500 nM
IC50 (EGFR WT): 100 to 500 nM
